{"source": "patent US9686992B2", "about": "“Pesticidal mixtures including spiroheterocyclic pyrrolidine diones” (Syngenta Participations AG, priority 2012, dated 2017)", "key": {"[1]": {"test_system": "Tetranychus urticae (Two-Spotted Spider Mite)", "test": "Tetranychus urticae feeding/contact activity, preventive (bean leaf discs)", "format": "in vivo", "details": "single active ingredient, mobile stages", "excerpt": "(§1) The action to be expected E for a given active ingredient combination obeys the so-called COLBY formula and can be calculated as follows (COLBY, S. R. “Calculating synergistic and antagonistic responses of herbicide combination”. Weeds, Vol. 15, pages 20-22; 1967):\n(§2) ppm=milligrams of active ingredient (=a.i.) per liter of spray mixture\n(§3) X=% action by active ingredient A) using p ppm of active ingredient\n(§4) Y=% action by active ingredient B) using q ppm of active ingredient.\n(§5) According to COLBY, the expected (additive) action of active ingredients A)+B) using p+q ppm of active ingredient is\n(§6) If the action actually observed (0) is greater than the expected action (E), then the action of the combination is super-additive, i.e. there is a synergistic effect. In mathematical terms the synergism factor SF corresponds to O/E. In the agricultural practice an SF of ≧1.2 indicates significant improvement over the purely complementary addition of activities (expected activity), while an SF of ≦0.9 in the practical application routine signals a loss of activity compared to the expected activity.\nTetranychus urticae (Two-Spotted Spider Mite): Feeding/Contact Activity, Preventive\nBean leaf discs on agar in 24-well microtiter plates were sprayed with the DMSO test solutions of certain Mixtures (as provided by Table 45). After drying, the leaf discs were infested with mite populations of mixed ages. 8 days later, discs were checked for mortality against mobile stages."}, "[2]": {"test_system": "Myzus persicae (Green Peach Aphid)", "test": "Myzus persicae feeding/residual contact activity, preventive (sunflower leaf discs)", "format": "in vivo", "details": "single active ingredient, 6 DAT", "excerpt": "as §1, §2, §3, §4, §5, §6\nMyzus persicae (Green Peach Aphid):\nFeeding/Residual Contact Activity, Preventive\nSunflower leaf discs were placed on agar in a 24-well microtiter plate and sprayed with the DMSO test solutions of Mixtures (as provided by Table 45). After drying, the leaf discs were infested with an aphid population of mixed ages. After an incubation period of 6 DAT (days after treatment), samples were checked for mortality."}}}
{"molecule": "N#CCNC(=O)c1cnccc1C(F)(F)F", "note": "[Flonicamid]", "values": [{"measurement": "AVERAGE DEAD IN % AFTER 8 DAYS", "setting": "[1]; 50 ppm AI", "result": 0, "unit": "%"}, {"measurement": "AVERAGE DEAD IN % AFTER 8 DAYS", "setting": "[1]; 100 ppm AI", "result": 0, "unit": "%"}, {"measurement": "AVERAGE DEAD IN % AFTER 8 DAYS", "setting": "[1]; 200 ppm AI", "result": 0, "unit": "%"}, {"measurement": "AVERAGE DEAD IN % AFTER 8 DAYS", "setting": "[1]; 400 ppm AI", "result": 0, "unit": "%"}, {"measurement": "AVERAGE DEAD IN % AFTER 8 DAYS", "setting": "[1]; 800 ppm AI", "result": 12.5, "unit": "%"}, {"measurement": "AVERAGE DEAD IN % AFTER 6 DAYS", "setting": "[2]; 0.75 ppm AI", "result": 0, "unit": "%"}, {"measurement": "AVERAGE DEAD IN % AFTER 6 DAYS", "setting": "[2]; 1.5 ppm AI", "result": 0, "unit": "%"}, {"measurement": "AVERAGE DEAD IN % AFTER 6 DAYS", "setting": "[2]; 3 ppm AI", "result": 7.5, "unit": "%"}, {"measurement": "AVERAGE DEAD IN % AFTER 6 DAYS", "setting": "[2]; 6 ppm AI", "result": 40, "unit": "%"}, {"measurement": "AVERAGE DEAD IN % AFTER 6 DAYS", "setting": "[2]; 12 ppm AI", "result": 82.5, "unit": "%"}]}
